Holding throughout (test): NCI tumour cell line growth inhibition, 48 h
Assay [1] relates to IGROV1 ovarian.
Assay [2] relates to SK-MEL-2 melanoma.
The subject of assay [3] is A498 renal.
In assay [4] the test system is SK-MEL-5 melanoma.
For assay [5], the system named is NCI-H460 lung.
For assay [6], the system named is HCT-116 colon.
Assay [7] has as its system HT29 colon.
Assay [8] relates to OVCAR-3 ovarian.
Assay [9] has as its system UACC-62 melanoma.
The subject of assay [10] is HL-60(TB) leukemia.

“And” between values parts separate entries of the source, which are not always exact repeats. Equal values may be shown once.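 All cell lines were grown in 96-well plates and treated with compound for 48 hours. GI50 is the concentration that inhibits growth by half. TGI marks complete inhibition of growth.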

GI50 and TGI data for 17 compounds are collected here from PubChem BioAssay (NCI).

On to `CC1/C=C/C=C/C=C/C=C/C=C/C=C/C=C/C(O[C@@H]2O[C@H](C)[C@H](O)[C@@H](O)[C@@H]2N)CC(O)C(C(=O)O)C(O)CC(=O)CC(O)CC(O)CC(O)CC(=O)CCCC(=O)CC(=O)OC1C(C)CC(C)C(O)CC(=O)c1ccc(N)cc1` (stereo partly specified), for which the GI50 in assay [1] is 0.0598 µM and 0.226 µM; in assay [2] it was 0.267 µM; in assay [3], 0.0512 µM and 0.159 µM; in assay [4], 0.0522 µM and 0.212 µM; in [5] it was 0.0611 µM and 0.229 µM; in assay [6] it was 0.0581 µM and 0.219 µM. Further, the GI50 in assay [7] is 0.0585 µM and 0.345 µM; in assay [8] it was 0.0631 µM and 0.374 µM; in assay [9], 0.0576 µM and 0.203 µM; in assay [10] it was 0.0609 µM and 0.178 µM. Also, the TGI in assay [1] was 0.116 µM and 0.536 µM; in assay [2] it was 0.813 µM; in assay [3], 0.0948 µM and 0.32 µM; in assay [4], 0.0961 µM and 0.496 µM; in [5], 0.11 µM and 0.633 µM; in [6] it was 0.103 µM and 0.485 µM. Further, the TGI in assay [9] was 0.109 µM and 0.458 µM; in [10], 0.145 µM and 0.396 µM.

Consider `N#Cc1c(-c2ccc(Cl)cc2)n(O)c2ccccc12`, for which the GI50 in assay [1] is 3.15 µM; in assay [2], 1.46 µM; in assay [3], 1.38 µM; in [4], 0.557 µM; in assay [5] it was 2.82 µM; in assay [6], 2.29 µM. For the same compound, the GI50 in assay [7] is 4.84 µM; in assay [8], 2.6 µM; in assay [9] it was 2.79 µM; in assay [10] it was 1.76 µM. The TGI was 8.52 µM in [1]; 5.46 µM in [2]; 4.09 µM in assay [3]; 2.06 µM in assay [4]; over 100 µM in assay [5]; 8.69 µM in [6]. The TGI in assay [7] is 20.9 µM; in [8], 6.39 µM; in [9], 12.3 µM; in [10], 5.69 µM.

Regarding `Cc1cc2cc3cc(C)c(N(C)C)cc3nc2cc1N(C)C`, the GI50 is 4.96 µM in assay [1]; 4.02 µM in [2]; 4.32 µM in [3]; 1.73 µM in [4]; 2.37 µM in [5]; 2.12 µM in assay [6]. For the same compound, the GI50 in [7] is 1.55 µM; in assay [8], 2.54 µM; in assay [9] it was 2.97 µM; in assay [10], 0.34 µM. Also, the TGI in assay [1] was over 100 µM; in [2], 75.7 µM; in assay [3] it was 26.2 µM; in assay [4], 4.71 µM; in assay [5] it was 11.5 µM; in assay [6], over 100 µM. For the same compound, the TGI in assay [7] is 23.8 µM; in assay [8], 11.1 µM; in [9] it was 17.2 µM; in assay [10] it was over 100 µM.

Take `Cc1nc2sccn2c(=O)c1CCN1CCC(=C(c2ccc(F)cc2)c2ccc(F)cc2)CC1`: the GI50 in assay [1] is 9.96 µM; in [2], 16.8 µM; in assay [3], 15.3 µM; in assay [4], 4.01 µM; in assay [5], 7.49 µM; in [6], 5.36 µM. In addition, the GI50 in assay [7] was 5.37 µM; in assay [8] it was 12.8 µM; in [9], 6.73 µM; in assay [10], 5.92 µM. The TGI came to 26.4 µM in assay [1]; 32.2 µM in assay [2]; 29.4 µM in [3]; 15 µM in assay [4]; 22.7 µM in assay [5]; 20.3 µM in assay [6]. Moreover, the TGI in [7] was determined as 19 µM; in assay [8], 27.2 µM; in assay [9] it was 20.5 µM; in [10], 26.5 µM.

For `Cc1cc(N(CCC#N)S(C)(=O)=O)ccc1C=O`, the TGI in assay [1], in assay [2], in assay [3], in [4], in assay [5] and in [6] was over 100 µM throughout. Also, the TGI in assay [7], in [8], in assay [9] and in assay [10] was over 100 µM throughout.

With `CC(=O)c1c(C(F)(F)F)n([O-])c2ccc(Cl)cc2[n+]1=O`, the GI50 in assay [1] was 0.322 µM; in assay [2], 3.18 µM; in assay [3], 1.33 µM; in assay [4], 0.822 µM; in [5], 0.0191 µM; in assay [6], 0.662 µM. Further, the GI50 in [7] was 1.4 µM; in assay [8], 2.64 µM; in assay [9], 0.916 µM; in assay [10] it was 0.681 µM. Also, the TGI in assay [2] was 12.5 µM; in assay [3], 2.88 µM; in [4], 2.65 µM; in [5] it was 0.286 µM; in assay [7] it was over 100 µM; in assay [8] it was 8.13 µM. Besides, the TGI came out at 3.45 µM in assay [9] and 4.65 µM in assay [10].

On to `O=C(CC1(O)C(=O)Nc2ccccc21)c1ccccc1Cl` (stereo unspecified), for which the TGI in assay [1], in [2], in assay [3], in assay [4], in assay [5] and in assay [6] was over 100 µM each time. The TGI in [7], in assay [8], in assay [9] and in assay [10] was over 100 µM each time.

Regarding `CC1C[C@H](OC(N)=O)C(C)CC1=O` (stereo partly specified), the TGI in assay [1], in assay [2], in assay [3], in assay [4], in assay [5] and in [6] was over 100 µM each time. The TGI in [7], in [8], in assay [9] and in assay [10] was over 100 µM throughout.

For the compound `CC(C)(C)[Si](C)(C)OCC1OC(n2cnc3c(NC(=O)c4ccccc4)ncnc32)CC1O` (stereo unspecified), the TGI is 91.3 µM in assay [1]; 57.9 µM in [2]; 60.5 µM in assay [3]; 33.3 µM in [4]; over 100 µM in [5]; 70.5 µM in assay [6]. Further, the TGI in [7] is over 100 µM; in assay [8], 81.1 µM; in assay [9], 40.4 µM; in assay [10], 49.2 µM.

Consider `C/C(=N\NC(=O)c1ccncc1)c1ccc2ccccc2c1O`, for which the TGI in assay [1] was 99.3 µM; in assay [2], over 100 µM; in assay [3] it was 53.3 µM; in assay [4] it was 14.1 µM; in [5] it was 20.4 µM; in [6], 10.5 µM. The TGI in assay [7] was over 58.6 µM; in assay [8], 3.59 µM; in assay [9], 21.6 µM; in assay [10] it was 10.3 µM.

Turning to `COc1ccc(Nn2c(SCC(=O)Nc3nc(-c4ccc(Cl)cc4)cs3)nc(C)c2C)cc1`, the GI50 is 5.67 µM in [1]; 15.7 µM in [2]; 2.22 µM in assay [3]; 1.41 µM in assay [4]; 2.69 µM in assay [5]; 2.12 µM in assay [6]. Moreover, the GI50 is 4.61 µM in assay [7], 3.13 µM in [8], 3.62 µM in assay [9] and 2.24 µM in [10]. The TGI in assay [1] is over 100 µM; in assay [2], 66.8 µM; in assay [3], 56.5 µM; in [4], 3.35 µM; in [5] it was 10.6 µM; in assay [6], 14.1 µM. Besides, the TGI is 50.4 µM in assay [7], 24.2 µM in assay [8], over 100 µM in assay [9] and 59.1 µM in assay [10].

Consider `Cc1cccc(Oc2nccc(-c3c(-c4ccc(F)cc4)ncn3C3CCNCC3)n2)c1C`, for which the GI50 in assay [1] is 6.76 µM; in assay [2], 9.09 µM; in assay [3], 6.22 µM; in assay [4], 3.61 µM; in assay [5], 6.24 µM; in assay [6], 7.26 µM. Besides, the GI50 in assay [7] is 4.68 µM; in assay [8], 14.3 µM; in assay [9] it was 4.94 µM; in assay [10], 9.38 µM. The TGI in assay [1] is over 16.7 µM; in assay [2], over 15.9 µM; in [3] it was over 15.7 µM; in assay [4] it was 6.92 µM; in [5], over 15 µM; in assay [6], over 17.8 µM. The TGI in assay [7] was 10.8 µM; in [8] it was over 25 µM; in assay [9] it was 9.96 µM; in [10] it was over 22.4 µM.

Consider `CN1CCCNc2c(c(=O)c2=O)NCCCN(C)CCCNc2c(c(=O)c2=O)NCCCN(C)CCCNc2c(c(=O)c2=O)NCCCN(C)CCCNc2c(c(=O)c2=O)NCCCN(C)CCCNc2c(c(=O)c2=O)NCCCN(C)CCCNc2c(c(=O)c2=O)NCCCN(C)CCCNc2c(c(=O)c2=O)NCCC1`, for which the GI50 in [1] is 3.13 µM; in assay [2] it was 3.12 µM; in assay [3], 2.72 µM; in assay [4], 6.69 µM; in [5], 3.9 µM; in [6], 5.81 µM. Further, the GI50 was 9.87 µM in [7], 4.39 µM in assay [8], 2.39 µM in [9] and 5.82 µM in [10]. Further, the TGI in assay [1] was 23.8 µM; in assay [2] it was 31.6 µM; in [3] it was 11.1 µM; in [4] it was 21.9 µM; in assay [5], over 50 µM; in assay [6], 17.4 µM. The TGI was over 50 µM in assay [7], 15.1 µM in assay [8], 16.8 µM in assay [9] and 32.4 µM in [10].

Regarding `N/N=C1\C(=O)N(C2CCCCC2)C(=O)C1C(=O)NC1CCCCC1` (stereo unspecified), the TGI in [1] was over 100 µM; in assay [2], 74.7 µM; in [3], over 100 µM; in assay [4], over 100 µM; in [5] it was over 100 µM; in assay [6] it was over 100 µM. The TGI in [7] is over 100 µM; in assay [8], 51 µM; in assay [9] it was over 100 µM; in assay [10], 89.3 µM.

With `O=[N+]([O-])c1ccc(-c2nc(-c3ccccc3)c(-c3ccccc3)n2-c2ccccc2)cc1`, the GI50 is 2.42 µM in assay [1]; 3.04 µM in [2]; 2.81 µM in assay [3]; 1.8 µM in assay [4]; 2.43 µM in assay [5]; 3.47 µM in assay [6]. The GI50 in assay [7] is 1.75 µM; in assay [8] it was 2.43 µM; in [9], 2.18 µM; in assay [10], 2.41 µM. In addition, the TGI in assay [1] is 7.28 µM; in [2], 8.6 µM; in assay [3] it was 9.12 µM; in assay [4], 3.81 µM; in assay [5], 7.06 µM; in assay [6], 14 µM. Further, the TGI in assay [7] came out at 3.37 µM; in assay [8], 6.67 µM; in [9], 8.53 µM; in [10] it was 5.83 µM.

Take `Cc1cc2c(=O)n(-c3ccc(F)cc3)c(C)nc2c(C(=O)O)c1C`: the TGI in assay [1], in assay [2], in [3], in assay [4], in assay [5] and in [6] was over 100 µM in each case. Moreover, the TGI in assay [7], in [8], in assay [9] and in [10] was over 100 µM in each case.

As to `CC(C)[C@@]12C[C@@H](OC(=O)[C@H]3CO3)[C@@](C)(O1)[C@@H]1CC[C@@H](C)[C@H]1[C@@H]2OC(=O)/C=C/c1ccccc1`, the GI50 in [1] was 23.7 µM; in [2] it was 16.7 µM; in assay [3], 0.217 µM; in [4] it was 14.9 µM; in assay [5], 17.2 µM; in [6], 9.46 µM. The GI50 is 27.6 µM in [7], 12.3 µM in assay [8], 13.6 µM in assay [9] and 13.4 µM in [10]. In addition, the TGI in assay [1] was over 83.4 µM; in assay [2] it was 47.7 µM; in assay [3] it was 0.684 µM; in assay [4], 28.5 µM; in [5], 42.5 µM; in [6], over 100 µM. The TGI in assay [7] is over 100 µM; in assay [8] it was 30.8 µM; in [9], 35.7 µM; in [10] it was 44.5 µM.
